Assay results as given in patent US20220387491A1, “METHODS OF MAKING CELLULAR THERAPIES” (Secura Bio, Inc., priority 2019, published 2022).
“Also recorded” adds a separate entry of the source.

How the values were obtained:
[1] = molecular target: T1, PI3K-γ (Homo sapiens, UniProt P48736); assay: Whole blood assay, p-Akt S473 in fMLP-stimulated monocytes; format: cell-based; parameters: from tissue; host or cells: whole blood; fMLP-stimulated monocytes (gated by flow cytometry); conditions: for PI3K-γ inhibition at clinically achievable exposures (in words): whole blood assay related to clinical plasma exposure
Protocol: Briefly, LPS-stimulated monocytes and fMLP-stimulated monocytes were cultured in the presence of 2 μg/mL LPS or 50 ng/mL fMLP, respectively. After 10 minutes of stimulation, red blood cells were lysed and remaining leukocytes were fixed, permeabilized and stained with CD45, CD3, CD45RA, CD14, CD19 and p-Akt S473 (D9E clone) antibodies. […] Monocytes were gated and the percentage of positive p-Akt monocytes was measured. IC50 dose curves were generated and IC50 values calculated.
(§1) Whole blood potencies against PI3K-δ and PI3K-γ were measured through inhibition of p-Akt in LPS-stimulated monocytes and fMLP-stimulated monocytes, respectively. Whole blood assay IC50 values, which encompass enzyme inhibition, cell penetration, and protein binding of inhibitors, are related to reported clinical plasma exposures of each agent at recommended phase II dose (RP2D).

[2] = read-out: Cmax (ss); reported clinical plasma exposure at recommended phase II dose (RP2D); cited from earlier work
[3] = system: T cells from human donors or CLL patients; assay: Ex vivo T cell expansion; format: cell-based
[4] = molecular target: T2, PI3K-δ (Homo sapiens, UniProt O00329); assay: Whole blood assay, p-Akt S473 in LPS-stimulated monocytes; format: cell-based; parameters: from tissue; host or cells: whole blood; LPS-stimulated monocytes (gated by flow cytometry); conditions: for PI3K-δ inhibition at clinically achievable exposures (in words): whole blood assay related to clinical plasma exposure
Protocol: (§2) The relative effects of different PI3K inhibitors on PI3K-δ and PI3K-γ cell signaling downstream of LPS and fMLP, respectively, were assessed in whole blood using phosphorylated (p)-Akt serine-473 as the readout. Briefly, LPS-stimulated monocytes and fMLP-stimulated monocytes were cultured in the presence of 2 μg/mL LPS or 50 ng/mL fMLP, respectively. After 10 minutes of stimulation, red blood cells were lysed and remaining leukocytes were fixed, permeabilized and stained with CD45, CD3, CD45RA, CD14, CD19 and p-Akt S473 (D9E clone) antibodies. Data was acquired on an LSRII cytometer (BD Biosciences) equipped with at least 4 lasers (405, 488, 561, and 640 nm). Monocytes were gated and the percentage of positive p-Akt monocytes was measured. IC50 dose curves were generated and IC50 values calculated.
as §1

[5] = system: T cells; assay: Expression of T cell exhaustion markers (TIM-3, LAG-3) by flow cytometry; format: cell-based, human
From the text: (§3) These early memory T cells populations have been associated with CAR-T cells that induce complete remissions.

[6] = system: T cells taken from CLL patients; assay: Proportion of early memory T cell populations; format: cell-based, human; conditions: 200 nM; compared with standard culture conditions
From the text: as §3

[7] = molecular target: T2, PI3K-δ; assay: PI3K-δ target inhibition in follicular lymphoma patients after oral dosing; format: in vivo; parameters: from tissue; host or cells: whole blood of follicular lymphoma patients after oral dosing
Protocol: as §2
(§4) At cycle 2 Day 1 pre, a timepoint corresponding to the 12 hour point when the next dose is to be given, the degree of inhibition is decreased; however, inhibition is re-established with the administration of the next dose.

[8] = molecular target: T1, PI3K-γ; assay: PI3K-γ target inhibition in follicular lymphoma patients after oral dosing; format: in vivo; parameters: from tissue; host or cells: whole blood of follicular lymphoma patients after oral dosing
Protocol: as §2, §4
Accordingly, BID should then re-establish inhibition in this 60-70% range.

[9] = system: CD19 CAR-T cells; assay: CAR-T-mediated cytotoxicity against tumor cells; format: cell-based; conditions: addition during generation of CD19 CAR-T cells
From the text: as §3

T2 sequence (O00329 whole entry): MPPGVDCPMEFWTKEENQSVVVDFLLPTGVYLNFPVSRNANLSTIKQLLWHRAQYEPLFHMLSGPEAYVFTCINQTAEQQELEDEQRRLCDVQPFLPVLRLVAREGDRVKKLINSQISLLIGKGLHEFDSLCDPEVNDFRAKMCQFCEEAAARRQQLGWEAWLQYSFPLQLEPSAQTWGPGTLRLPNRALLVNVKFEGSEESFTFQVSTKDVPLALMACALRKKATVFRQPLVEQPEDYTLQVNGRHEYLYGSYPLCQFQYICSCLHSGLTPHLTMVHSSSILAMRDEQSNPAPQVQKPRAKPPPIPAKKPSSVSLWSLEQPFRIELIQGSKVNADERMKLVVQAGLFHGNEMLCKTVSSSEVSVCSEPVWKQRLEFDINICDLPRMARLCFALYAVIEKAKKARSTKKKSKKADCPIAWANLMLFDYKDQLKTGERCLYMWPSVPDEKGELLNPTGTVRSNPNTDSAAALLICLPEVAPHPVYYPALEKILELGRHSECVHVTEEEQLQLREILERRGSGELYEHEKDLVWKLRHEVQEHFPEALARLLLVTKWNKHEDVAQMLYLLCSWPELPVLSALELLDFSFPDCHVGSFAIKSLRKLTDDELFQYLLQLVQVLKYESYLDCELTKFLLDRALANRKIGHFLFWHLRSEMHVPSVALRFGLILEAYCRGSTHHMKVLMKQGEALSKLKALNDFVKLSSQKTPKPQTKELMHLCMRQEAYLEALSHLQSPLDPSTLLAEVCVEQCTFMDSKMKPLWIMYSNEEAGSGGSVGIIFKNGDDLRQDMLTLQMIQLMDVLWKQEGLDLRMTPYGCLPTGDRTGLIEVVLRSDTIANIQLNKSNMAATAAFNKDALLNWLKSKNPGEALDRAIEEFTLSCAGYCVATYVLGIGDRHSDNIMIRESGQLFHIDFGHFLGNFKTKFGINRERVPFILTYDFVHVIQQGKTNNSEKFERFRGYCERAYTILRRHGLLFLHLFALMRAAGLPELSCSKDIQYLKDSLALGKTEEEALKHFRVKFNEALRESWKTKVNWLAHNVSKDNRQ
T2 sequence (P27986 whole entry partner): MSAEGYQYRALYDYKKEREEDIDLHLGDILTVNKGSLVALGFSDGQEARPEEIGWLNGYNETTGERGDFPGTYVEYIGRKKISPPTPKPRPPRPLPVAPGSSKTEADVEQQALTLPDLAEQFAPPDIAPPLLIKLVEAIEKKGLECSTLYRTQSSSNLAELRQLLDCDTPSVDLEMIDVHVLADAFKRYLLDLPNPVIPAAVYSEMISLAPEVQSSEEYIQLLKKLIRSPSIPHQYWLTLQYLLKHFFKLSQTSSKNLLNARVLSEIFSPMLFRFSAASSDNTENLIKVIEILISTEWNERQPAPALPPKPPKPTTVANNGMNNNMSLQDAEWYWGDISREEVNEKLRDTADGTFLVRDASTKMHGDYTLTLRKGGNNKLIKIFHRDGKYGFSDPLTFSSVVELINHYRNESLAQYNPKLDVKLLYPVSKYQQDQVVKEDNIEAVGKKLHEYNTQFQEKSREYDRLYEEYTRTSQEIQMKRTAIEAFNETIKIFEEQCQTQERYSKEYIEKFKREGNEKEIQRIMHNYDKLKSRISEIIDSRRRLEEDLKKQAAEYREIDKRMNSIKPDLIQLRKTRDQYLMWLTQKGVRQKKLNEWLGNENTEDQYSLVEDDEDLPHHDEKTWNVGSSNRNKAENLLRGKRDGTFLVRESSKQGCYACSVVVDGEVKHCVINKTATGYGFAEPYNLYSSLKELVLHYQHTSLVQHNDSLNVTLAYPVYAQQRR
T1 sequence (P48736 whole entry): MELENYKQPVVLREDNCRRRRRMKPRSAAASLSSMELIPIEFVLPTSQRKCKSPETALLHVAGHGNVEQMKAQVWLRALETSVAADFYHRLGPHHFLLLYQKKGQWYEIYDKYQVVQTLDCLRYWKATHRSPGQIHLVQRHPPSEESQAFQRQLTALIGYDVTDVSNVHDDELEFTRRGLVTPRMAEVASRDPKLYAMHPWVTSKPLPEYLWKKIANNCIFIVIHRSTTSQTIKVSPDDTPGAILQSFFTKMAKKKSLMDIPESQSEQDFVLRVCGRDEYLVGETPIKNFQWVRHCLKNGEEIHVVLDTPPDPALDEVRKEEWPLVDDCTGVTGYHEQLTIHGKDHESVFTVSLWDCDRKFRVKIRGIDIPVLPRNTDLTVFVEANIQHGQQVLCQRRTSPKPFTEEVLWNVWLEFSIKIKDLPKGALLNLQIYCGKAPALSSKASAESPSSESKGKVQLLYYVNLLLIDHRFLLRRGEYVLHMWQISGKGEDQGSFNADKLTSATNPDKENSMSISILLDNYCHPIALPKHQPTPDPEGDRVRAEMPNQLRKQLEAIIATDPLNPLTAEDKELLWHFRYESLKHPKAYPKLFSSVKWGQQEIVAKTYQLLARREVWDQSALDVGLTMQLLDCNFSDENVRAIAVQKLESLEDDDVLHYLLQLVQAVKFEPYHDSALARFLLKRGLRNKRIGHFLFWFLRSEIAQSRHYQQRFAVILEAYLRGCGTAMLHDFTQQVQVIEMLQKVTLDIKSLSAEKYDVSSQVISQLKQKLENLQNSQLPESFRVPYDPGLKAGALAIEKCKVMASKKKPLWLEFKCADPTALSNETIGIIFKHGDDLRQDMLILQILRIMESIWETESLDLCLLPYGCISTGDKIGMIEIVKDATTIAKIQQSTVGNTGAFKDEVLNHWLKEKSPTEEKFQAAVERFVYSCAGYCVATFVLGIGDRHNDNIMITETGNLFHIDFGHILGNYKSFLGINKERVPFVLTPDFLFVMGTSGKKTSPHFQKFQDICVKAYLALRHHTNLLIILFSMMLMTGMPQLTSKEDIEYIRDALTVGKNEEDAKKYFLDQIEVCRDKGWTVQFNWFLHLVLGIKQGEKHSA

Compound	PI3K-γ inhibition at clinically achievable exposures (in words) [1]	PI3K-δ inhibition at clinically achievable exposures (in words) [4]	Cmax [2] [µM]	concentration of maximal effect on T cell expansion [3] [µM]	other results
CC(C)Oc1ccc(-c2nn([C@@H](C)c3oc4ccc(F)cc4c(=O)c3-c3cccc(F)c3)c3ncnc(N)c23)cc1F [Umbralisib]			9.2		IC50 [1]: 55 ± 16 µM
CC[C@H](Nc1ncnc2[nH]cnc12)c1nc2cccc(F)c2c(=O)n1-c1ccccc1 [Idelalisib, (S)-2-(1-(9H-purin-6-ylamino)propyl)-5-fluoro-3-phenylquinazolin-4(3H)-one]	not sufficient to inhibit PI3K-γ	single isoform inhibition; also recorded: sufficient to inhibit PI3K-δ	4.8	1	
C[C@H](Nc1ncnc2[nH]cnc12)c1cc2cccc(Cl)c2c(=O)n1-c1ccccc1 [Duvelisib, (S)-3-(1-((9H-purin-6-yl)amino)ethyl)-8-chloro-2-phenylisoquinolin-1(2H)-one]	inhibited both PI3K-δ and PI3K-γ	inhibited both PI3K-δ and PI3K-γ	2.5	0.04	expression of T cell exhaustion markers (TIM-3, LAG-3) [5]: reduces expression; proportion of early memory T cell populations [6]: increases the proportion of early memory T cell populations; degree of inhibition of PI3K-δ ([7]; cycle 2 Day 1 pre (12 hour point before next dose)): decreased; inhibition at 25 mg ([7]; human, follicular lymphoma patients, 25 mg oral, 1 and 4 hours after dosing): 90 to 95%; degree of inhibition of PI3K-γ ([8]; cycle 2 Day 1 pre): decreased; inhibition of PI3K-γ ([8]; follicular lymphoma patients, 25 mg, 1 and 4 hours): 60-70%; cytotoxic activity of CAR-T cells to kill tumor cells [9]: increases; increase in T cell expansion ([3]; T cells from human donors or CLL patients): 3 to 4 fold
CC[C@H](Nc1ncnc2nc[nH]c12)c1oc2ccccc2c(=O)c1-c1cccc(F)c1 [Tenalisib, (S)-2-(1-((7H-purin-6-yl)amino)propyl)-3-(3-fluorophenyl)-4H-chromen-4-one]	did not meaningfully inhibit	did not meaningfully inhibit			PI3Kγ IC50 ([1]; whole blood, inhibition of p-Akt in fMLP-stimulated monocytes): No inhibition; IC50 ([4]; whole blood, inhibition of p-Akt in LPS-stimulated monocytes, read-out: PI3Kδ IC50): > 50 µM
C[C@H](NC(=O)c1c(N)nn2cccnc12)c1cc2cccc(C#Cc3cnn(C)c3)c2c(=O)n1-c1ccccc1 [IPI-549, 2-amino-N-[(1S)-1-[8-[2-(1-methylpyrazol-4-yl)ethynyl]-1-oxo-2-phenylisoquinolin-3-yl]ethyl]pyrazolo[1,5-a]pyrimidine-3-carboxamide]		not PI3K-δ	9.1		
